According to patent publication US20160194299A1 (priority 2013, published 2016):
Values after ≈ are worked out from the molar mass of the structure shown. Read-outs that look alike come from different tables or passages of the source.

Legend:
[1] = test system: Mtb; assay: microbe, parasite or virus in culture; type: cell-based, Mycobacterium tuberculosis; settings: Mycobacterium tuberculosis, read-out: MIC (I)
[2] = test system: Mtb; assay: microbe, parasite or virus in culture; type: cell-based, Mycobacterium tuberculosis; settings: Mycobacterium tuberculosis, read-out: MIC (III)
[3] = in vitro; settings: African green monkey

| SMILES | MIC [1] | MIC [2] | CC50 [3] |
| --- | --- | --- | --- |
| CC(C)OC(=O)NC(=O)c1ccsc1NC(=O)c1cc2ncccn2n1 [Compound 340] | < 1 µg/mL | > 25 µg/mL | 25 to 50 µg/mL (≈ 67 to 134 µM) |
| CCOC(=O)NC(=O)c1ccsc1NC(=O)c1cn2c(C)cccc2n1 [Compound 290] | > 3 µg/mL | > 25 µg/mL | > 50 µg/mL |
| CCOC(=O)NC(=O)c1ccsc1NC(=O)c1nc2c(N(C)C)ccnc2s1 [Compound 268] | < 1 µg/mL | > 25 µg/mL | > 50 µg/mL |
| O=C(NC(=O)c1ccsc1NC(=O)c1nc2ccccc2s1)OCc1ccc(F)cc1 [Compound 274] | 1 to 3 µg/mL (≈ 2.2 to 6.59 µM) | > 25 µg/mL | < 25 µg/mL |
| CCOC(=O)N(C)C(=O)c1ccsc1NC(=O)c1nc2cnccc2s1 [Compound 376] | > 3 µg/mL | > 25 µg/mL | < 25 µg/mL |
| O=C(NC(=O)c1ccsc1NC(=O)c1nc2cnccc2s1)OC1CCOC1 (stereo not drawn) [Compound 102] | < 1 µg/mL | < 5 µg/mL | > 50 µg/mL |
| CC1CCN(C(=O)c2ccsc2NC(=O)c2nc3ccccc3s2)CC1 [Compound 260] | > 3 µg/mL | > 25 µg/mL | 25 to 50 µg/mL (≈ 64.8 to 130 µM) |
| CCOC(=O)NC(=O)c1ccsc1NC(=O)c1cc(OC)c2ccccc2n1 [Compound 114] | > 3 µg/mL | > 25 µg/mL | > 50 µg/mL |
| CCOC(=O)NC(=O)c1ccsc1NC(=O)c1sc(C)nc1C(F)(F)F [Compound 137] | > 3 µg/mL | > 25 µg/mL | > 50 µg/mL |
| CCOC(=O)NC(=O)c1cc(F)sc1NC(=O)c1nc2cnccc2s1 [Compound 337] | < 1 µg/mL | > 25 µg/mL | 25 to 50 µg/mL (≈ 63.4 to 127 µM) |
| O=C(Nc1sccc1C(=O)N1CCN(c2ccccc2)CC1)c1nc2ccccc2s1 [Compound 258] | > 3 µg/mL | > 25 µg/mL | > 50 µg/mL |
| CC(C)OC(=O)NC(=O)c1cc(F)sc1NC(=O)c1cc2ncccn2n1 [Compound 345] | < 1 µg/mL | > 25 µg/mL | 25 to 50 µg/mL (≈ 63.9 to 128 µM) |
| CCOC(=O)NC(=O)c1ccsc1NC(=O)C1=NNC(=O)CC1 [Compound 64] | < 1 µg/mL | < 5 µg/mL | > 50 µg/mL |
| CCOC(=O)NC(=O)c1ccsc1NC(=O)c1nc2cnccc2s1 [Compound 82] | < 1 µg/mL | < 5 µg/mL | > 50 µg/mL |
| COCCOC(=O)NC(=O)c1ccsc1NC(=O)c1nc2cnccc2s1 [Compound 103] | < 1 µg/mL | > 25 µg/mL | > 50 µg/mL |
| CCOC(=O)NC(=O)c1ccsc1NC(=O)c1cccc2cccnc12 [Compound 112] | > 3 µg/mL | > 25 µg/mL | > 50 µg/mL |
| O=C(NCC(F)(F)F)NC(=O)c1ccsc1NC(=O)c1nc2ccccc2s1 [Compound 349] | > 3 µg/mL | > 25 µg/mL | 25 to 50 µg/mL (≈ 58.4 to 117 µM) |
| CCOC(=O)NC(=O)c1ccsc1NC(=O)c1nsc2ccccc12 [Compound 378] | > 3 µg/mL | > 25 µg/mL | 25 to 50 µg/mL (≈ 66.6 to 133 µM) |
| O=C(NC(=O)c1ccsc1NC(=O)c1nc2cnccc2s1)OCc1ccc(F)cc1 [Compound 275] | > 3 µg/mL | > 25 µg/mL | 25 to 50 µg/mL (≈ 54.8 to 110 µM) |
| O=C(NC(=O)c1ccsc1NC(=O)c1cn2ccccc2n1)OC1CCCCC1 [Compound 381] | > 3 µg/mL | > 25 µg/mL | < 25 µg/mL |
| O=C(NC(=O)c1ccsc1NC(=O)c1nc2cnccc2s1)OCCOCc1ccccc1 [Compound 369] | < 1 µg/mL | > 25 µg/mL | 25 to 50 µg/mL (≈ 51.8 to 104 µM) |
| CCOC(=O)NC(=O)c1ccsc1NC(=O)c1nc2c(s1)CCN(C)C2 [Compound 85] | 1 to 3 µg/mL (≈ 2.53 to 7.6 µM) | < 5 µg/mL | > 50 µg/mL |
| O=C(NC(=O)c1ccsc1NC(=O)c1nc2ccccc2s1)OCCF [Compound 37] | < 1 µg/mL | > 25 µg/mL | > 50 µg/mL |

| SMILES | MIC [1] | MIC [2] | CC50 [3] |
| --- | --- | --- | --- |
| CCOC(=O)NC(=O)c1ccsc1NC(=O)c1nc2c(s1)CCN(c1ccccc1)C2 [Compound 97] | < 1 µg/mL | > 25 µg/mL | > 50 µg/mL |
| CCOC(=O)NC(=O)c1ccsc1NC(=O)c1cc(C(F)(F)F)nc2ccccc12 [Compound 117] | > 3 µg/mL | > 25 µg/mL | < 25 µg/mL |
| CCOC(=O)NC(=O)c1ccsc1NC(=O)c1cn2ncccc2n1 [Compound 93] | < 1 µg/mL | < 5 µg/mL | > 50 µg/mL |
| CC(C)OC(=O)NC(=O)c1cc(F)sc1NC(=O)c1cnc2ccnn2c1 [Compound 316] | 1 to 3 µg/mL (≈ 2.56 to 7.67 µM) | > 25 µg/mL | 25 to 50 µg/mL (≈ 63.9 to 128 µM) |
| CC(=O)N1CCC(OC(=O)NC(=O)c2ccsc2NC(=O)c2cnc3ccnn3c2)CC1 [Compound 368] | > 3 µg/mL | > 25 µg/mL | 25 to 50 µg/mL (≈ 54.8 to 110 µM) |
| CCOC(=O)NC(=O)c1cc(F)sc1NC(=O)c1ccn2nccc2c1 [Compound 343] | < 1 µg/mL | > 25 µg/mL | < 25 µg/mL |
| O=C(NC(=O)c1ccsc1NC(=O)c1cnc2ccnn2c1)OCCC(F)(F)F [Compound 322] | > 3 µg/mL | > 25 µg/mL | < 25 µg/mL |
| CCOC(=O)NC(=O)c1ccsc1NC(=O)c1cc2c(F)cccc2s1 [Compound 331] | < 1 µg/mL | 5 to 25 µg/mL (≈ 12.7 to 63.7 µM) | < 25 µg/mL |
| CC(C)OC(=O)NC(=O)c1cc(F)sc1NC(=O)c1nc2ccccc2s1 [Compound 342] | < 1 µg/mL | 5 to 25 µg/mL (≈ 12.3 to 61.4 µM) | 25 to 50 µg/mL (≈ 61.4 to 123 µM) |
| O=C(Nc1sccc1C(=O)NC1CCNCC1)c1nc2ccccc2s1 [Compound 259] | > 3 µg/mL | > 25 µg/mL | > 50 µg/mL |
| COCCOC(=O)NC(=O)c1ccsc1NC(=O)c1cn2ccccc2n1 [Compound 373] | > 3 µg/mL | > 25 µg/mL | 25 to 50 µg/mL (≈ 64.4 to 129 µM) |
| CCOC(=O)NC(=O)c1ccsc1NC(=O)c1ccnc(NC(=O)N2CCS(=O)(=O)CC2)c1 [Compound 47] | < 1 µg/mL | > 25 µg/mL | > 50 µg/mL |
| CCOC(=O)NC(=O)c1cc(CC(=O)O)sc1NC(=O)c1nc2cnccc2s1 [Compound 308] | > 3 µg/mL | > 25 µg/mL | < 25 µg/mL |
| CCOC(=O)NC(=O)c1ccsc1NC(=O)c1cc2nc(C)cc(C)n2n1 [Compound 121] | > 3 µg/mL | > 25 µg/mL | > 50 µg/mL |
| CCOC(=O)NC(=O)c1ccsc1NC(=O)c1ccnc(NC(=O)CN2CCOCC2)c1 [Compound 46] | < 1 µg/mL | > 25 µg/mL | > 50 µg/mL |
| CCOC(=O)NC(=O)c1ccsc1NC(=O)c1cc2cccnc2s1 [Compound 332] | < 1 µg/mL | > 25 µg/mL | > 50 µg/mL |
| CCOC(=O)NC(=O)c1ccsc1NC(=O)c1ccnc(NC(=O)N2CCOCC2)c1 [Compound 33] | < 1 µg/mL | > 25 µg/mL | > 50 µg/mL |
| CC(C)OC(=O)NC(=O)c1ccsc1NC(=O)c1cnc2ccoc2c1 [Compound 354] | > 3 µg/mL | > 25 µg/mL | 25 to 50 µg/mL (≈ 67 to 134 µM) |
| COC(=O)NC(=O)c1ccsc1NC(=O)c1cnc2ccnn2c1 [Compound 313] | > 3 µg/mL | > 25 µg/mL | 25 to 50 µg/mL (≈ 72.4 to 145 µM) |
| COCCOC(=O)NC(=O)c1ccsc1NC(=O)c1cnc2ccnn2c1 [Compound 372] | < 1 µg/mL | > 25 µg/mL | 25 to 50 µg/mL (≈ 64.2 to 128 µM) |
| CCC(OC(=O)NC(=O)c1ccsc1NC(=O)c1nc2cnccc2s1)c1ccccc1 (stereo not drawn) [Compound 305] | 1 to 3 µg/mL (≈ 2.14 to 6.43 µM) | > 25 µg/mL | < 25 µg/mL |
| CC(C)OC(=O)NC(=O)c1cc(F)sc1NC(=O)c1cn2ccccc2n1 [Compound 339] | < 1 µg/mL | > 25 µg/mL | 25 to 50 µg/mL (≈ 64 to 128 µM) |
